In one data set the target is Cytochrome P450 2D6 (Homo sapiens, UniProt P10635).
For data set [1], the system named is Brain. Briefly: Brain tissue binding in rat at 1 ug/ml after 6 hrs by equilibrium dialysis method. The format is ADME, tissue-based.
A short description of data set [2]: Half life in Sprague-Dawley rat at 3 mg/kg, po. The data set is classed as ADME, organism-based. Also noted: dose 3 mg/kg, route oral. Particulars: in vivo.
The test system of data set [3] is Brain. The data set can be described thus: Drug level in po dosed Lister Hooded rat brain assessed per gram of tissue. The data set is classed as ADME, organism-based. To be noted: in vivo.
Data set [4] in a line: Half life in Sprague-Dawley rat at 1 mg/kg, iv and 3 mg/kg, po. The format is ADME, organism-based. Particulars: in vivo.
A short description of data set [5]: Plasma protein binding in human at 1 ug/ml after 6 hrs by equilibrium dialysis method. The format is ADME, cell-free. To be noted: read-out: PPB (converted).
The nature of data set [6]: Plasma protein binding in dog at 1 ug/ml after 6 hrs by equilibrium dialysis method. The data set is classed as ADME, cell-free, Canis lupus familiaris. Particulars: read-out: PPB (converted). A general note: Equilibrium dialysis compares concentrations on both sides of a semipermeable membrane.
The nature of data set [7]: Volume of distribution at steady state in cynomolgus monkey at 0.125 mg/kg, iv and 0.5 mg/kg, po. The format is ADME, organism-based, Macaca fascicularis. To be noted: in vivo, read-out: Vdss.
Data set [8] can be described thus: Chemical stability of the compound. The data set is classed as physicochemical.
Data set [9] in a line: Plasma protein binding in mouse at 1 ug/ml after 6 hrs by equilibrium dialysis method. The format is ADME, cell-free. To be noted: read-out: PPB (converted).
Data set [10] can be described thus: Half life in Beagle dog at 0.5 mg/kg, po. Also noted: dose 0.5 mg/kg, route oral. The format is ADME, organism-based, Canis lupus familiaris. To be noted: in vivo.
The nature of data set [11]: Oral bioavailability in Beagle dog at 0.5 mg/kg. The data set is classed as ADME, organism-based, Canis lupus familiaris. Particulars: in vivo.
A further data set can be described thus: in vivo. Particulars: rat, brain/blood.
The test system of data set [12] is Cynomolgus monkey. Briefly: Cardiotoxicity in conscious cynomolgus monkey up to 2.5 mg/kg, po. The data set is classed as toxicity, organism-based, Macaca fascicularis. More on the design: dose 2.5 mg/kg, route oral. To be noted: in vivo.
Data set [13] can be described thus: Blood clearance in Beagle dog at 0.125 mg/kg, iv and 0.5 mg/kg, po. The data set is classed as ADME, organism-based, Canis lupus familiaris.
Another data set concerns the target Glutamate receptor 2 (Homo sapiens, UniProt P42262). Briefly: Activation of human recombinant GluR2 flip isoform expressed in HEK293 cells assessed as increase of glutamate-induced inward current by whole cell voltage-clamp electrophysiology. The format is cell-based.
In a further data set the test system is Rattus norvegicus. The data set can be described thus: Liver blood flow in Sprague-Dawley rat at 1 mg/kg, iv and 3 mg/kg, po. To be noted: in vivo. The format is ADME, organism-based.
Another data set concerns the target Cytochrome P450 3A4 (Homo sapiens, UniProt P08684).
In data set [14] the test system is Cynomolgus monkey. The data set can be described thus: Liver blood flow in cynomolgus monkey at 0.125 mg/kg, iv and 0.5 mg/kg, po. The format is ADME, organism-based, Macaca fascicularis. Particulars: in vivo.
A short description of data set [15]: Half life in cynomolgus monkey at 0.5 mg/kg, po. Particulars: in vivo. The data set is classed as ADME, organism-based, Macaca fascicularis. More on the design: dose 0.5 mg/kg, route oral.
The target in the next data set is T1, Cytochrome P450 1A2 (Homo sapiens, UniProt P05177).
T1 sequence (P05177 whole entry): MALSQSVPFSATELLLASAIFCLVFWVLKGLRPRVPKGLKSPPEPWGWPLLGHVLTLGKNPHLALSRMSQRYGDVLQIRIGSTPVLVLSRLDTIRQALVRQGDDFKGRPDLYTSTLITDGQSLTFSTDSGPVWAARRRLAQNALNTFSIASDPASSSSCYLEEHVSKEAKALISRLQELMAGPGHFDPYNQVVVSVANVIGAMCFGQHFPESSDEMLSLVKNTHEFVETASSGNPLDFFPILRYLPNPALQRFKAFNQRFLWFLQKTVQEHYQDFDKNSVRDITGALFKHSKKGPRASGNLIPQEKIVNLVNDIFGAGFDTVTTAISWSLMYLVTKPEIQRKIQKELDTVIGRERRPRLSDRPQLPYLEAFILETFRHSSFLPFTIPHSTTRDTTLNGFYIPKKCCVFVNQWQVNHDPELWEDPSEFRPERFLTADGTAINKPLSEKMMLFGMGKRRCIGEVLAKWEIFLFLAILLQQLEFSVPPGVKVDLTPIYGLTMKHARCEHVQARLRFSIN

Data set [16] in a line: Oral bioavailability in Sprague-Dawley rat at 3 mg/kg. The format is ADME, organism-based. To be noted: in vivo.

pIC50: −log10 of the molar value.

Chain of Cytochrome P450 2D6 (P10635 whole entry): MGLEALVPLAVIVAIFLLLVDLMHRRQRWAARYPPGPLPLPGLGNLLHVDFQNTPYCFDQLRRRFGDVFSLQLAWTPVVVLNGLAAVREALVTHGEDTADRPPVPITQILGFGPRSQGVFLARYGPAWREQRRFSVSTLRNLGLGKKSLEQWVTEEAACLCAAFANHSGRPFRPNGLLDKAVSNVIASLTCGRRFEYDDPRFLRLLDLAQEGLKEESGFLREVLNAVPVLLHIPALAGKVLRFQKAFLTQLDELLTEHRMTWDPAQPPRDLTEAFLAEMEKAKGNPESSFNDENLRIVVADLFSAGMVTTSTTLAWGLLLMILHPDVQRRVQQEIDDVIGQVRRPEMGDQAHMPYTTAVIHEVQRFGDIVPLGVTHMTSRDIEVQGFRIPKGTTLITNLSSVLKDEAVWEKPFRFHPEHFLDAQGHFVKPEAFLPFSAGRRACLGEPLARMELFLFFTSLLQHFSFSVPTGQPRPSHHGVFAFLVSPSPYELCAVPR
Chain of Cytochrome P450 3A4 (P08684 whole entry): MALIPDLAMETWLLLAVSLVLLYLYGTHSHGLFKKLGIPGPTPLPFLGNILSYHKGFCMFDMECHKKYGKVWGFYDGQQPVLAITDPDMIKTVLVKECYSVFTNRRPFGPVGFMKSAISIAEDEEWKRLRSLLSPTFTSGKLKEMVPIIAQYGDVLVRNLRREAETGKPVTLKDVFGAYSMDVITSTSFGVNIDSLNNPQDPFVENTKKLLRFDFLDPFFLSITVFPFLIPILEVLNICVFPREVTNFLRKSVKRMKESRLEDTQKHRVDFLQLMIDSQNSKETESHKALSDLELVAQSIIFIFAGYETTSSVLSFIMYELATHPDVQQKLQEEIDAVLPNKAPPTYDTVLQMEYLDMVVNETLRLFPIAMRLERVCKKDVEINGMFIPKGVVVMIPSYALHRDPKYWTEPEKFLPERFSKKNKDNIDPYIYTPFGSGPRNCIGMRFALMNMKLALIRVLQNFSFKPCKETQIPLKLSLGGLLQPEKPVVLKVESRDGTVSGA
Chain of Glutamate receptor 2 (P42262 whole entry, canonical isoform): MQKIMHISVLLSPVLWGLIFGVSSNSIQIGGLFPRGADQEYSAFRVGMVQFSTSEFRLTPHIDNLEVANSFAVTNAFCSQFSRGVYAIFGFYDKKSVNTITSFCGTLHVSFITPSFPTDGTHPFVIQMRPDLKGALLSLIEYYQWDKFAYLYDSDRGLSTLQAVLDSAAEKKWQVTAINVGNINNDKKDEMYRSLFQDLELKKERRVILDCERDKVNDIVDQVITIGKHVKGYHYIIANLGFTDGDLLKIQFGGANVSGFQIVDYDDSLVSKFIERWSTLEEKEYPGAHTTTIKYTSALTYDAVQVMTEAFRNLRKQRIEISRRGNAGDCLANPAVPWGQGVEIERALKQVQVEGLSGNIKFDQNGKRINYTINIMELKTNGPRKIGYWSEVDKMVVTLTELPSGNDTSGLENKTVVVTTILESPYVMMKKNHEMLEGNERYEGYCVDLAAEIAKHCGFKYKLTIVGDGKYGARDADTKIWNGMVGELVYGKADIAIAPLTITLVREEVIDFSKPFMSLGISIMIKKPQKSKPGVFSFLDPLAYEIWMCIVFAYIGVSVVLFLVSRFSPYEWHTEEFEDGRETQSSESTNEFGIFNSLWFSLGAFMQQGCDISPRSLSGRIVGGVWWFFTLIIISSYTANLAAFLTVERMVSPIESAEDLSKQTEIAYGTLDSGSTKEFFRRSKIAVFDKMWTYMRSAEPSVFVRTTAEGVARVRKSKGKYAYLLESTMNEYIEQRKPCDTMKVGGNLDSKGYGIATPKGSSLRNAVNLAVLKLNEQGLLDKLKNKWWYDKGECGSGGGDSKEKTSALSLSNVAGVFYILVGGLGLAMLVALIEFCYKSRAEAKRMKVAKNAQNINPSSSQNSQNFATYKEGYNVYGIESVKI
Description for Cytochrome P450 1A2: Inhibition of human CYP1A2 after 10 mins
Description for Cytochrome P450 2D6: Inhibition of human CYP2D6 after 10 mins
Description for Cytochrome P450 3A4: Inhibition of human CYP3A4 after 10 mins
Description for in vivo: Ratio of brain AUC (0 to t) to blood AUC (0 to t) in rat

The term pIC50 denotes the IC50 on a negative log10 scale, so that one unit is a factor of ten. The term half-life denotes how long it takes for the measured level to halve. For orientation: bioavailability means the share of a dose that reaches the circulation, judged against a reference dose that is usually intravenous. What is called Kp is tissue or fluid exposure divided by exposure in the circulation. Consider `CC(C)S(=O)(=O)N[C@H]1Cc2ccc(-c3ccc(F)nc3)cc2C1` [GSK-729327], for which the pIC50 on Cytochrome P450 2D6, on Cytochrome P450 3A4 and against Cytochrome P450 1A2 was below 5.00 in each case. The Activity is 97.4% with Brain [1], “Non-toxic” in the data set on Cynomolgus monkey [12] and “Dose-dependent effect” on Glutamate receptor 2. The half-life in data set [2] is 6.6 h; in data set [4] it was 5 h; in data set [10], 17 h; in data set [15], 24 h. The Drug uptake in the data set on Brain [3] turned out to be 122 ng/g. Besides, the fraction unbound at 6 h, 1 ug/ml in [5] is 0.092; in [6], 0.205; in [9], 0.15. Besides, in data set [7], the Vd was determined as 1.8 L/kg. The Stability result in [8] is “Stable”. Moreover, the bioavailability in [11] and in [16] was 61% throughout. Also, in “in vivo”, the Kp amounted to 2.1. Besides, the clearance in [13] was found to be 3.4 mL/min/kg. Besides, the LBF in the data set on Rattus norvegicus is on record as 6%; in the data set on Cynomolgus monkey [14], 3%.

Values taken from ChEMBL document CHEMBL1212831, “Discovery of N-[(2S)-5-(6-fluoro-3-pyridinyl)-2,3-dihydro-1H-inden-2-yl]-2-propanesulfonamide, a novel clinical AMPA receptor positive modulator” (J Med Chem, 2010).
